This assay concerns the target CDK12 wt/CycK (Homo sapiens (Human), UniProt Q9NYV4). The assay is described as follows: Radiometric protein kinase assay (33PanQinase Activity Assay), Assay Condition A (thiol containing conditions). The class given is biochemical. Here is the method: Example 1—Assay Condition A (Thiol Containing Conditions)
Objective: The IC50 profile of test compounds was determined using three protein kinases.
Test compounds: The compounds were provided as pre-weighed powders in vials. The compounds were dissolved to 1×10^−02M by adding DMSO. 100 μl of each of the resulting stock solutions were transferred into column 2 of four 96 well “master plates”.
Prior to testing, the 1×10^−02M stock solutions in column 2 of the master plates were subjected to a serial, semi-logarithmic dilution using 100% DMSO as a solvent. […] Column 1 and 7 were filled with 100% DMSO as controls. Subsequently, 2×10 μl from each well of the serial diluted copy plates were aliquoted with a 96 channel pipettor into two identical sets of “compound dilution plates”.
In the process, 90 μl H2O were added to each well of a set of compound dilution plates. To minimize potential precipitation, the H2O was added to each plate only a few minutes before the transfer of the compound solutions into the assay plates. Each plate was shaken thoroughly, resulting in a “compound dilution plate/10% DMSO”.
For the assays, 5 μl solution from each well of the compound dilution plates/10% DMSO were transferred into the assay plates. The final volume of the assay was 50 μl. All compounds were tested at 10 final assay concentrations in the range from 1×10^−04M to 3×10^−09M, in singlicate. The final DMSO concentration in the reaction cocktails was 1% in all cases.
Recombinant protein kinases: All protein kinases were expressed in Sf9 insect cells or in E. coli as recombinant GST-fusion proteins or His-tagged proteins, either as full-length or enzymatically active fragments. All kinases were produced from human cDNAs and purified by either GSH-affinity chromatography or immobilized metal. Affinity tags were removed from a number of kinases during purification. The purity of the protein kinases was examined by SDS-PAGE/Coomassie staining, the identity was checked by mass spectroscopy.
Protein kinase assay: A radiometric protein kinase assay (^33PanQinase® Activity Assay) was used for measuring the kinase activity of the three protein kinases. All kinase assays were performed in 96-well FlashPlates™ from PerkinElmer (Boston, Mass., USA) in a 50 μl reaction volume. The reaction cocktail was pipetted in four steps in the following order: • 20 μl of assay buffer (standard buffer) • 5 μl of ATP solution (in H2O) • 5 μl of test compound (in 10% DMSO) • 20 μl enzyme/substrate mix
The following amounts of enzyme and substrate were used per well:
The reaction cocktails were incubated at 30° C. for 60 minutes. The reaction was stopped with 50 μl of 2% (v/v) H3PO4, plates were aspirated and washed two times with 200 μl 0.9% (w/v) NaCl. Incorporation of ^33Pi was determined with a microplate scintillation counter (Microbeta, Wallac). All assays were performed with a BeckmanCoulter/SAGIAN™ Core System.
Evaluation of raw data: The median value of the counts in column 1 (n=8) of each assay plate was defined as “low control”. This value reflects unspecific binding of radioactivity to the plate in the absence of a protein kinase but in the presence of the substrate. The median value of the counts in column 7 of each assay plate (n=8) was taken as the “high control”, i.e. full activity in the absence of any inhibitor. The difference between high and low control was taken as 100% activity.
As part of the data evaluation the low control value from a particular plate was subtracted from the high control value as well as from all 80 “compound values” of the corresponding plate. The residual activity (in %) for each well of a particular plate was calculated by using the following formula: Res. Activity (%)=100×[(cpm of compound−low control)/(high control−low control)]
The residual activities for each concentration and the compound IC50 values were calculated using Quattro Workflow V3.1.1 (Quattro Research GmbH, Munich, Germany).

Where [1] appears, read: thiol containing conditions (1.2 mM DTT), ATP 0.3 μM, read-out: CDK12 IC50 Condition A.

Read-outs that look alike come from different tables or passages of the source.

CDK12 wt/CycK, sequence (Q9NYV4 whole entry): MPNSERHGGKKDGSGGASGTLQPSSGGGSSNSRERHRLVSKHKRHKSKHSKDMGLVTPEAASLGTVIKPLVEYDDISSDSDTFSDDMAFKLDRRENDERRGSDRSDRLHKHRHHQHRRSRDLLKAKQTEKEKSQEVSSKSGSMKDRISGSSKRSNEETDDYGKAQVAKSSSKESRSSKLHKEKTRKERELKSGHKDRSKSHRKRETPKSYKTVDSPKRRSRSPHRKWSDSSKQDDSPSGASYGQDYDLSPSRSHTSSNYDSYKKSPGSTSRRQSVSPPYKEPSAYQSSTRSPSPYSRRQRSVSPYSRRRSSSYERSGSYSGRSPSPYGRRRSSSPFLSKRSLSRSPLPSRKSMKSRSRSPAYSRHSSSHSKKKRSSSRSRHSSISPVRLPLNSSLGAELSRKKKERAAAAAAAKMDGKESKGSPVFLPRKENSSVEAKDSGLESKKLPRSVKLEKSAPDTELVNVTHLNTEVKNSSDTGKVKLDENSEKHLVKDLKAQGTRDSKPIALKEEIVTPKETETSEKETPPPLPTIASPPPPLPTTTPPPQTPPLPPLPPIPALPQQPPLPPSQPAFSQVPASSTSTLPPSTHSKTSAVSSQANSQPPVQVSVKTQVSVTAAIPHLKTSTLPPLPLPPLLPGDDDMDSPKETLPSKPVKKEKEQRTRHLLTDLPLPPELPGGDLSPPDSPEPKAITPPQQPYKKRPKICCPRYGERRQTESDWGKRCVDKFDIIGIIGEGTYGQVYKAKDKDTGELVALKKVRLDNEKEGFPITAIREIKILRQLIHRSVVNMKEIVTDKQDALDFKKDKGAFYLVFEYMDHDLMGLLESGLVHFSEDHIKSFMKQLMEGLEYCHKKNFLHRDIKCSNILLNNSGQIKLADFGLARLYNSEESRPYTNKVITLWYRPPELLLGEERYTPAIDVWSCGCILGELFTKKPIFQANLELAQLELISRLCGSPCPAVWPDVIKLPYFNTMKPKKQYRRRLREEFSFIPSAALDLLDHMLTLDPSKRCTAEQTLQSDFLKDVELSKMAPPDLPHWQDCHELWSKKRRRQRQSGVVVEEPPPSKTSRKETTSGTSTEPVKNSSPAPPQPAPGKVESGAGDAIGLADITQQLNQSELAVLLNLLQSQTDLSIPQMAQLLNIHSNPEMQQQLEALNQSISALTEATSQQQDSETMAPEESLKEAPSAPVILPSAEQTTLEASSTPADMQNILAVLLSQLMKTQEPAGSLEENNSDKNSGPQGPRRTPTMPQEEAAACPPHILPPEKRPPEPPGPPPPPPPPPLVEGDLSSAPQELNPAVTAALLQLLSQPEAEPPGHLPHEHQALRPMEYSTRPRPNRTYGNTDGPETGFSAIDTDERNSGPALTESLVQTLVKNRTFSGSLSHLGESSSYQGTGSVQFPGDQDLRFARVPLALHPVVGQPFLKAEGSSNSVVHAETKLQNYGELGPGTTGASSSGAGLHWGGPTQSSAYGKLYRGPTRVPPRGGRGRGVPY
CDK12 wt/CycK, sequence (O75909 whole entry partner): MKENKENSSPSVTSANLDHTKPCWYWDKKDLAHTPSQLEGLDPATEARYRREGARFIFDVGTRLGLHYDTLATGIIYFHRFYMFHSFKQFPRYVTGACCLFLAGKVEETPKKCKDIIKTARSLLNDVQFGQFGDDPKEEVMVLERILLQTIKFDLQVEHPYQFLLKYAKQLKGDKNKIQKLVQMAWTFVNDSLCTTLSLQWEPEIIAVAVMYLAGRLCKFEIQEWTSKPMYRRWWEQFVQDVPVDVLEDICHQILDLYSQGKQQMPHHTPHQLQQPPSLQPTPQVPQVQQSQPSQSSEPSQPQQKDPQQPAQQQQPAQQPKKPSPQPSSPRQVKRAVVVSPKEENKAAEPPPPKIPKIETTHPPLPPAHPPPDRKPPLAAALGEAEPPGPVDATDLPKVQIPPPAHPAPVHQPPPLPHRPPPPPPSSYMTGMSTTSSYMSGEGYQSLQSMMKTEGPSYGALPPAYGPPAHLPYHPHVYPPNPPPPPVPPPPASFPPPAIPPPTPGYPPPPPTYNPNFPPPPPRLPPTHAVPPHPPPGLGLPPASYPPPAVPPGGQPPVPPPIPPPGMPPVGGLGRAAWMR

For the compound `O=C(c1ccc(N2C(=O)C=CC2=O)cc1)N1CC[C@@H](Nc2ncc(Cl)cn2)C1` [Example 140, (R)-1-(4-(3-((5-chloropyrimidin-2-yl)amino)pyrrolidine-1-carbonyl)phenyl)-1H-pyrrole-2,5-dione], the IC50 under setting [1] is 1000 to 10000 nM.
The same measure, in the same setting: the value for `O=C(Nc1ccc(C(=O)N2CC[C@@H](Nc3ncc(Cl)cn3)C2)cc1)C1CO1` (stereo partly drawn) [Example 141, N-(4-((R)-3-((5-chloropyrimidin-2-yl)amino)pyrrolidine-1-carbonyl)phenyl)oxirane-2-carboxamide] was 1000 to 10000 nM; that for `COc1nc(N[C@@H]2CCN(C(=O)c3ccc(NC(=O)C4CO4)cc3)C2)ncc1Cl` (stereo partly drawn) [Example 142, N-(4-((R)-3-((5-chloro-4-methoxypyrimidin-2-yl)amino)pyrrolidine-1-carbonyl)phenyl)oxirane-2-carboxamide] was 1000 to 10000 nM.
Turning to `C=CC(=O)Nc1ccc(C(=O)N2CC[C@@H](Nc3ncc(Cl)c(OCC)n3)C2)cc1OC1CCOC1` (stereo partly drawn) [Example 143, N-(4-((R)-3-((5-chloro-4-ethoxypyrimidin-2-yl)amino)pyrrolidine-1-carbonyl)-2-((tetrahydrofuran-3-yl)oxy)phenyl)acrylamide], under setting [1], the IC50 was less than 100 nM.
For `C=CC(=O)Nc1ccc(C(=O)N2CC[C@@H](Nc3ncc(Cl)c(OCC)n3)C2)cc1OCCN(C)C` [Example 144, (R)—N-(4-(3-((5-chloro-4-ethoxypyrimidin-2-yl)amino)pyrrolidine-1-carbonyl)-2-(2-(dimethylamino)ethoxy)phenyl)acrylamide], the IC50 was less than 100 nM.
On the same count and under the same terms, under `C=CC(=O)Nc1ccc(C(=O)N2CC[C@@H](Nc3ccc(C#N)cn3)C2)cc1` [Example 147, (R)—N-(4-(3-((5-cyanopyridin-2-yl)amino)pyrrolidine-1-carbonyl)phenyl)acrylamide] stands 100 to 1000 nM.
For `C=CC(=O)Nc1ccc(C(=O)N2CC[C@@H](Nc3ncc(C#N)cn3)C2)cc1` [Example 148, (R)—N-(4-(3-((5-cyanopyrimidin-2-yl)amino)pyrrolidine-1-carbonyl)phenyl)acrylamide], the IC50 under setting [1] fell in the range of 100 to 1000 nM.
Same read-out and setting: the value for `C/C=C/C(=O)Nc1ccc(C(=O)N2CC[C@@H](Nc3ncc(Cl)c(OC)n3)C2)nc1` [Example 150, (R,E)-N-(6-(3-((5-chloro-4-methoxypyrimidin-2-yl)amino)pyrrolidine-1-carbonyl)pyridin-3-yl)but-2-enamide] was 100 to 1000 nM.
In the case of `CC#CC(=O)Nc1ccc(C(=O)N2CC[C@@H](Nc3ncc(Cl)c(OC)n3)C2)cc1` [Example 151, (R)—N-(4-(3-((5-chloro-4-methoxypyrimidin-2-yl)amino)pyrrolidine-1-carbonyl)phenyl)but-2-ynamide], the IC50 under setting [1] was less than 100 nM.
As to `C=CC(=O)Nc1ccc(C(=O)N2CC[C@@H](Nc3ncc(Cl)c(OCC)n3)C2)nc1` [Example 152, (R)—N-(6-(3-((5-chloro-4-ethoxypyrimidin-2-yl)amino)pyrrolidine-1-carbonyl)pyridin-3-yl)acrylamide], the IC50 under setting [1] was less than 100 nM.
Same read-out and setting: under `C=CC(=O)Nc1ccc(C(=O)N2CC[C@@H](Nc3ncc(Cl)c(OCCOCC)n3)C2)cc1` [Example 153, (R)—N-(4-(3-((5-chloro-4-(2-ethoxyethoxy)pyrimidin-2-yl)amino)pyrrolidine-1-carbonyl)phenyl)acrylamide] stands 100 to 1000 nM.
`[2H]C([2H])([2H])Oc1nc(N[C@@H]2CCN(C(=O)c3ccc(NC(=O)C#C)cc3)C2)ncc1Cl` [Example 154, (R)—N-(4-(3-((5-chloro-4-(trideuteromethoxy)pyrimidin-2-yl)amino)pyrrolidine-1-carbonyl)phenyl)propiolamide] came in with a half-maximal inhibitory concentration (IC50) of less than 100 nM.
For the compound `C=CC(=O)Nc1ccc(C(=O)N2CC[C@H](Nc3ncc(Cl)cn3)C2)cc1` [Example 155, (S)—N-(4-(3-((5-chloropyrimidin-2-yl)amino)pyrrolidine-1-carbonyl)phenyl)acrylamide], the IC50 under setting [1] lay in the range of 10000 to 30000 nM.
For `C=CC(=O)Nc1ccc(C(=O)N2CC[C@@H](Nc3ncc(Br)cn3)C2)cc1OCCN1CCOCC1` [Example 156, (R)—N-(4-(3-((5-bromopyrimidin-2-yl)amino)pyrrolidine-1-carbonyl)-2-(2-morpholinoethoxy)phenyl)acrylamide], the IC50 lay within 100 to 1000 nM.
With `C=CC(=O)Nc1ccc(C(=O)N2CC[C@@H](Nc3ncc(Br)cn3)C2)cc1N1CCC(N(C)C)CC1` [Example 158, (R)—N-(4-(3-((5-bromopyrimidin-2-yl)amino)pyrrolidine-1-carbonyl)-2-(4-(dimethylamino)piperidin-1-yl)phenyl)acrylamide], the IC50 under setting [1] was 100 to 1000 nM.
Take `C=CC(=O)Nc1ccc(C(=O)N2CC[C@@H](Nc3ncc(Br)cn3)C2)cc1N(C)CCN(C)C` [Example 159, (R)—N-(4-(3-((5-bromopyrimidin-2-yl)amino)pyrrolidine-1-carbonyl)-2-((2-(dimethylamino)ethyl)(methyl)amino)phenyl)acrylamide]: the IC50 under setting [1] fell in the range of 1000 to 10000 nM.
On the same count and under the same terms, under `C=CC(=O)Nc1ccc(C(=O)N2CC[C@@H](Nc3ncc(C#N)c(OC)n3)C2)cc1` [Example 160, (R)—N-(4-(3-((5-cyano-4-methoxypyrimidin-2-yl)amino)pyrrolidine-1-carbonyl)phenyl)acrylamide] stands 10000 to 30000 nM.
Same read-out and setting: the value for `C=CC(=O)Nc1ccc(C(=O)N2CC[C@@H](Nc3ncc(Br)cn3)C2)cc1OCCN1CCC(F)(F)CC1` [Example 162, (R)—N-(4-(3-((5-bromopyrimidin-2-yl)amino)pyrrolidine-1-carbonyl)-2-(2-(4,4-difluoropiperidin-1-yl)ethoxy)phenyl)acrylamide] was 100 to 1000 nM; that for `C=CC(=O)Nc1ccc(C(=O)N2CC[C@@H](Nc3ncc(Br)cn3)C2)cc1O[C@@H]1CCN(C)C1` [Example 163, N-(4-((R)-3-((5-bromopyrimidin-2-yl)amino)pyrrolidine-1-carbonyl)-2-(((R)-1-methylpyrrolidin-3-yl)oxy)phenyl)acrylamide] was less than 100 nM; that for `C=CC(=O)Nc1ccc(C(=O)N2CC[C@@H](Nc3ncc(Br)cn3)C2)cc1O[C@H]1CCN(C)C1` [Example 164, N-(4-((R)-3-((5-bromopyrimidin-2-yl)amino)pyrrolidine-1-carbonyl)-2-(((S)-1-methylpyrrolidin-3-yl)oxy)phenyl)acrylamide] was less than 100 nM.
Still for that read-out and setting: under `C=CC(=O)Nc1ccc(C(=O)N2CC[C@@H](Nc3ncc(C#N)c(OC)n3)C2)cc1OCCN(C)C` [Example 165, (R)—N-(4-(3-((5-cyano-4-methoxypyrimidin-2-yl)amino)pyrrolidine-1-carbonyl)-2-(2-(dimethylamino)ethoxy)phenyl)acrylamide] stands less than 100 nM.
Consider `C=CC(=O)Nc1ccc(C(=O)N2CC[C@@H](Nc3ncc(C#N)cn3)C2)cc1OCCN(C)C` [Example 166, (R)—N-(4-(3-((5-cyanopyrimidin-2-yl)amino)pyrrolidine-1-carbonyl)-2-(2-(dimethylamino)ethoxy)phenyl)acrylamide], for which the IC50 lay within 100 to 1000 nM.
Turning to `COc1nc(N[C@@H]2CCN(C(=O)c3ccc(NC(=O)/C=C/CN4CC[C@@H](F)C4)cc3)C2)ncc1Cl` [Example 167, (E)-N-(4-((R)-3-((5-chloro-4-methoxypyrimidin-2-yl)amino)pyrrolidine-1-carbonyl)phenyl)-4-((R)-3-fluoropyrrolidin-1-yl)but-2-enamide], the IC50 under setting [1] is less than 100 nM.
On the same count and under the same terms, under `COc1nc(N[C@@H]2CCN(C(=O)c3ccc(NC(=O)/C=C/CN4CCOCC4)cc3)C2)ncc1Cl` [Example 168, (R,E)-N-(4-(3-((5-chloro-4-methoxypyrimidin-2-yl)amino)pyrrolidine-1-carbonyl)phenyl)-4-morpholinobut-2-enamide] stands 100 to 1000 nM.

In general, IC50 refers to the concentration at which inhibition is half-maximal.
